Data reported in US4851572A, “γ-L-glutamyl-4-nitroanilide derivatives and process for determining γ-GTP activity using the same” (Wako Pure Chemical Industries, Ltd., priority 1987, dated 1989).
≈ marks a conversion by molar mass, not a printed value. Like-named read-outs stand apart in the source and are kept apart here.

Key:
[1] = Solubility of the substrates in reagent solutions; type: physicochemical; conditions: pH 8.2, reagent solution (buffer:substrate solution 4:1)
Excerpt: In Table 2 are shown the solubility of the substrates for measuring γ-GTP activity used in Examples 5 and 6 and Comparative Examples 1 and 2 in reagent solutions (reagent solutions being obtained by mixing each buffer solution and each substrate solution in the ratio of 4:1), and the results of stability test on the substrate solutions in the individual cases.

γ-GTP (human serum) [2] = molecular target: T1, γ-GTP (human serum) (Homo sapiens, UniProt P19440); experiment: Measurement of γ-GTP activity with the substrate, human serum sample (rate assay, 410 nm); type: biochemical; conditions: relative to Comparative Example 1 taken as 100, 37° C., 5 min
T1 construct: As samples, there were used human serum; from tissue; host or cells: human serum
T1 sequence (P19440 1-380 limits assumed): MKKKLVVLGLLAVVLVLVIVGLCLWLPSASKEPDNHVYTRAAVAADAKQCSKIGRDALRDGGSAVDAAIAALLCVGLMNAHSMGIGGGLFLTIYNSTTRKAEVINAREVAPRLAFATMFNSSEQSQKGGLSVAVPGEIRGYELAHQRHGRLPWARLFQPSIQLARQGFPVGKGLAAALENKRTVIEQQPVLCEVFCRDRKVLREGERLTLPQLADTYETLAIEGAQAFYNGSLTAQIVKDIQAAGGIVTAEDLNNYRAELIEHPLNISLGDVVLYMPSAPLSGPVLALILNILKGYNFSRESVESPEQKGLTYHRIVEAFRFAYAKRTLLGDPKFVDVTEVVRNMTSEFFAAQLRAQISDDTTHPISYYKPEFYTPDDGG
T1 sequence (P19440 381-569 limits assumed): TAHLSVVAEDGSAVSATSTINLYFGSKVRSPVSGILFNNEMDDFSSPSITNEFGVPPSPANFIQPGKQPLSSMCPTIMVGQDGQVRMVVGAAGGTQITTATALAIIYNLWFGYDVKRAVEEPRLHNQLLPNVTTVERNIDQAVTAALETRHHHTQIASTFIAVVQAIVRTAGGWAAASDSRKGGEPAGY
Experimental: (§1) Measurement of γ-GTP activity
(§2) 100 Millimols of tris(hydroxymethyl)aminomethane and 60 mmols of glycylglycine were added in 800 ml of deionized water, and pH of its solution was adjusted to 8.2 (at 25° C.) with hydrochloric acid, after which the resulting solution was made up to 1 liter with deionized water.
(§3) In deionized water was dissolved 15 mmols of the γ-L-glutamyl-3-hydroxymethyl-4-nitroanilide obtained in Example 1 to make a total volume of 1 liter.
(§4) As samples, there were used human serum and 7% aqueous bovine albumin solutions containing γ-GTP derived from porcine kidney or bovine kidney (hereinafter abbreviated as parcine sample and bovine sample, respectively).
(§5) To 50 μl of each sample was added 2.0 ml of the buffer solution .circle.1 , followed by preincubation at 37° C. for 3 minutes, and 0.5 ml of the substrate solution .circle.2 was added. After sufficient mixing, the resulting mixture was allowed to stand for 1 minute, after which the increase rate of absorbance at 410 nm was measured, and the γ-GTP activity value (IU/l) in the sample was calculated from the molecular absorption coefficient (7.6×10^6 cm^2 /mol) of 3-hydroxymethyl-4-nitroaniline generated.
(§6) 100 mmols of tris(hydroxymethyl)aminomethane and 60 mmols of glycylglycine were added in 800 ml of deionized water, and pH of its solution was adjusted to 8.2 (at 25° C.) with hydrochloric acid, after which the resulting solution was made up to 1 liter with deionized water.
(§7) In deionized water was dissolved 15 mmols of the γ-L-glutamyl-3-(β-hydroxyethyl)-4-nitroanilide obtained in Example 3 to make a total volume of 1 liter.
(§8) The same samples as in Example 5 were used.
(§9) To 50 μl of each sample was added 2.0 ml of the buffer solution .circle.1 , followed by preincubation at 37° C. for 3 minutes, and 0.5 ml of the substrate solution .circle.2 was added. After sufficient mixing, the resulting mixture was allowed to stand for 1 minute, after which the increase rate of absorbance at 410 nm was measured, and the γ-GTP activity value (IU/l) in the sample was calculated from the molecular absorption coefficient (7.3×10^6 cm^2 /mol) of 3-(β-hydroxyethyl)-4-nitroaniline generated. […]
(§10) To 50 μl of each sample was added 2.0 ml of the buffer solution .circle.1 , followed by preincubation at 37° C. for 3 minutes, and 0.5 ml of the substrate solution .circle.2 was added. After sufficient mixing, the resulting mixture was allowed to stand for 1 minute, after which the increase rate of absorbance at 410 nm was measured, and the γ-GTP activity value (IU/l) in the sample was calculated from the molecular absorption coefficient (8.8×10^6 cm^2 /mol) of p-nitroaniline generated. […]

[3] = molecular target: T2, γ-GTP derived from bovine kidney (Bos taurus, UniProt G3N2D8); experiment: Measurement of γ-GTP activity with the substrate, bovine sample (rate assay, 410 nm); type: biochemical; conditions: relative to Comparative Example 1 taken as 100, 37° C., 5 min
T2 construct: γ-GTP derived from porcine kidney or bovine kidney; from tissue; host or cells: bovine kidney
T2 sequence (G3N2D8 1-379 limits assumed): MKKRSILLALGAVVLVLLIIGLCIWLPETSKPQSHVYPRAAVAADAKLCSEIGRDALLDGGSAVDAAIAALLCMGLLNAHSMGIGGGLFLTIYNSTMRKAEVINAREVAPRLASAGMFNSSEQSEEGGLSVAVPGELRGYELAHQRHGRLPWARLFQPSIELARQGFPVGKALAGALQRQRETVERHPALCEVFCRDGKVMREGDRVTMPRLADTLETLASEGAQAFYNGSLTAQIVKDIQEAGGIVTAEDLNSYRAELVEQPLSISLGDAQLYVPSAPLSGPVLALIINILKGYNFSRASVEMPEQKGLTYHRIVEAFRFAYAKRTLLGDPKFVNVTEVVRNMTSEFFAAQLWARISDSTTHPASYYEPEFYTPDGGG
T2 sequence (G3N2D8 380-568 limits assumed): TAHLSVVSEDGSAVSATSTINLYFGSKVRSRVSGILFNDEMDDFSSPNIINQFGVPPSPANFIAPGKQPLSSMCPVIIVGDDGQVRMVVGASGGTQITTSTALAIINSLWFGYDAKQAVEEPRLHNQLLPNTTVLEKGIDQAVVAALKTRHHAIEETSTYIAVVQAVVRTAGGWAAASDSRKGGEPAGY
Experimental: as §1, §2, §3, §4, §5, §6, §7, §8, §9, §10

γ-GTP = experiment: Difference in reactivity with γ-GTPs derived from various sources (human serum, porcine, bovine); type: biochemical; conditions: for Difference between max. and min. activity values: human serum, porcine and bovine samples, relative values, Comparative Example 1 = 100
Experimental: as §4, §5
To 50 μl of each sample was added 2.0 ml of the buffer solution .circle.1 , followed by preincubation at 37° C. for 3 minutes, and 0.5 ml of the substrate solution .circle.2 was added. After sufficient mixing, the resulting mixture was allowed to stand for 1 minute, after which the increase rate of absorbance at 410 nm was measured, and the γ-GTP activity value (IU/l) in the sample was calculated from the molecular absorption coefficient (7.3×10^6 cm^2 /mol) of 3-(β-hydroxyethyl)-4-nitroaniline generated.
To 50 μl of each sample was added 2.0 ml of the buffer solution .circle.1 , followed by preincubation at 37° C. for 3 minutes, and 0.5 ml of the substrate solution .circle.2 was added. After sufficient mixing, the resulting mixture was allowed to stand for 1 minute, after which the increase rate of absorbance at 410 nm was measured, and the γ-GTP activity value (IU/l) in the sample was calculated from the molecular absorption coefficient (8.8×10^6 cm^2 /mol) of p-nitroaniline generated.
To 50 μl of each sample was added 2.0 ml of the buffer solution .circle.1 , followed by preincubation at 37° C. for 3 minutes, and 0.5 ml of the subdrate solution .circle.2 was added. After sufficient mixing, the resulting mixture was allowed to stand for 1 minute, after which the increase rate of absorbance at 410 nm was measured, and the γ-GTP activity value (IU/l) in the sample was calculated from the molecular absorption coefficient ([…]) of 3-carboxy-4-nitroaniline generated.
In Table 1, the values of Comparative Example 2 and Examples 5 and 6 are relative γ-GTP activity values taking those of Comparative Example 1 as 100. The γ-GTP activity values (IU/l) were calculated from an absorbance change (ΔE/5 min) at 410 nm for 5 minutes after initiation of the reaction.

[4] = molecular target: T3, γ-GTP derived from porcine kidney (Sus scrofa, UniProt P20735); experiment: Measurement of γ-GTP activity with the substrate, porcine sample (rate assay, 410 nm); type: biochemical; conditions: relative to Comparative Example 1 taken as 100, 37° C., 5 min
T3 construct: γ-GTP derived from porcine kidney or bovine kidney; from tissue; host or cells: porcine kidney
T3 sequence (P20735 1-379 limits assumed): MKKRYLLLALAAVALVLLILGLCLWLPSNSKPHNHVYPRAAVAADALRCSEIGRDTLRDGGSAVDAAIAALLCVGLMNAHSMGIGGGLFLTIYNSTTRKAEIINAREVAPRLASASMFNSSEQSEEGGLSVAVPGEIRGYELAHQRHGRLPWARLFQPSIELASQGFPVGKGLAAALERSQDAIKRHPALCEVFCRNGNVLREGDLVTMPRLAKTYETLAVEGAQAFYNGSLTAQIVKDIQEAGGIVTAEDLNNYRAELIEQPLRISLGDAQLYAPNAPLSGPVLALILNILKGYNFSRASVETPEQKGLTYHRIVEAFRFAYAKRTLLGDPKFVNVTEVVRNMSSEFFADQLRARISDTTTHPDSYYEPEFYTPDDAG
T3 sequence (P20735 380-568 limits assumed): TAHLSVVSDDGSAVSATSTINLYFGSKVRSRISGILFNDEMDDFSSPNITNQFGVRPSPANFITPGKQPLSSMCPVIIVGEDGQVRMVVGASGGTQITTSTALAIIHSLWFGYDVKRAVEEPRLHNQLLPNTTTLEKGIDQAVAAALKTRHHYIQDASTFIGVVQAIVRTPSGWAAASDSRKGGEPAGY
Experimental: as §1, §2, §3, §4, §5, §6, §7, §8, §9, §10

γ-GTP (human sera) = molecular target: T4, γ-GTP (human sera) (Homo sapiens, UniProt P19440); experiment: Measurement of γ-GTP activity in human sera with Hitachi automatic analyzer Model 7150 (precision, correlation); type: biochemical; conditions: for Average values (measured values of human sera): n=50 human sera; for Average / Coefficient of variation (C.V.) / Maximum / Minimum: within-run precision
T4 construct: heavy and light chain from one precursor), not purified
T4 sequence (P19440 whole entry): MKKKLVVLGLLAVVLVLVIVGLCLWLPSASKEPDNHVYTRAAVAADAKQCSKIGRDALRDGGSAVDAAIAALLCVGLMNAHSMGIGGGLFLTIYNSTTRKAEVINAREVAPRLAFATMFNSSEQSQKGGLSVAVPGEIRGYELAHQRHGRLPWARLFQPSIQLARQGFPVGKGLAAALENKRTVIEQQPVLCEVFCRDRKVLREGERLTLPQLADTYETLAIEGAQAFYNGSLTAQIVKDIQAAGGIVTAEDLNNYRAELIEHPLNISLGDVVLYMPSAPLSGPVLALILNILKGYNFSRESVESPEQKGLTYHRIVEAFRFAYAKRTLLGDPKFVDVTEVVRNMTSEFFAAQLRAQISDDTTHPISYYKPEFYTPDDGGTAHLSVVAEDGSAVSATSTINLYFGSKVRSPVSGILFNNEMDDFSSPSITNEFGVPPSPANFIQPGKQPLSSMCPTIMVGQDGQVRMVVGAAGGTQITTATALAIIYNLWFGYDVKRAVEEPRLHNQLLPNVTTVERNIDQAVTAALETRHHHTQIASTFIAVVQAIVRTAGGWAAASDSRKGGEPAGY
Experimental: (§11) The buffer solution prepared in Example 5 was used.
(§12) In deionized water was dissolved 10 mmols of the γ-L-glutamyl-3-hydroxymethyl-4-nitroanilide obtained in Example 4 to make a total volume of 1 liter.
Fifty human sera were used as samples.
The buffer solution prepared in Comparative Example 2 was used.
The substrate solution prepared in Comparative Example 2 was used.
The same samples as in Example 7 were used.
Measurement was carried out under the same conditions as in Example 7, except that among CHEMISTRY PARAMETERS in Table 4, R1 VOLUME was changed to [320][100][NO], […] to [80][20][NO], and K FACTOR to 7123 (ε=9.5).
0.125M Tris-HCL buffer (pH 7.8, at 37° C., containing 96 mM glycylglycine and 13 mM magnesium chloride).
A 0.1N hydrochloric acid solution containing 20 mM of γ-L-glutamyl-4-nitroanilide.
Measurement was carried out under the same conditions as in Example 7, except that among CHEMISTRY PARAMETERS in Table 4, K FACTOR was changed to 6835 (ε=9.90).
In FIG. 1 is shown the correlation of the values measured for the individual human sera in Example 7 with those in Comparative Example 3. The coefficient of correlation, the regression equation, and the like, obtained by statistical processing, etc. are shown below.
In FIG. 2 is shown the correlation of the values measured for the individual human sera in Example 7 with those in Comparative Example 4. The coefficient of correlation, the regression equation, and the like, obtained by statistical processing, etc. are shown below.

[5] = background statement, cited from earlier work
γ-GTP (human serum) [6] = molecular target: T1, γ-GTP (human serum); conditions: reported by Leslie M. Shaw (Clinical Chemistry, 23, 79 (1977)); cited from earlier work
γ-GTP (porcine kidney) [7] = conditions: reported by Leslie M. Shaw (Clinical Chemistry, 23, 79 (1977)); cited from earlier work
γ-GTP (porcine kidney) [8] = experiment: Km value, γ-GTP from porcine kidney; type: biochemical
Excerpt: (§13) In Table 3 are shown the results of measuring, by a conventional method, Km values of γ-L-glutamyl-3-hydroxymethyl-4-nitroanilide, which is a compound of this invention, for each of γ-GTPs derived from human serum, porcine kidney and bovine kidney.
In Table 3 are also shown, for reference, Km values of γ-L-glutamyl-3-carboxy-4-nitroanilide and γ-L-glutamyl-p-nitroanilide reported by Leslie M. Shaw (Clinical Chemistry, 23, 79 (1977)).

γ-GTP (bovine kidney) = experiment: Km value, γ-GTP from bovine kidney; type: biochemical
Excerpt: as §13

[9] = molecular target: T3, γ-GTP derived from porcine kidney; experiment: Calibration curve linearity with γ-GTP derived from porcine kidney in 7% aqueous bovine albumin solution; type: biochemical; conditions: 7% aqueous bovine albumin solution containing porcine kidney γ-GTP
Experimental: as §11, §12

[10] = suitable pH range for determining γ-GTP activity; background statement; cited from earlier work

For `N[C@@H](CCC(=O)Nc1ccc([N+](=O)[O-])c(CCO)c1)C(=O)O` [γ-L-glutamyl-3-(β-hydroxyethyl)-4-nitroanilide], the Solubility ([1]; 5° C.) was 10000 µM (≈ 3.11 mg/mL), the “relative γ-GTP activity value, human serum” value (γ-GTP (human serum) [2]) was 95 and the “relative γ-GTP activity value, bovine sample” value [3] was 85. The “Difference between max. and min. activity values” (γ-GTP) was 10 and the “relative γ-GTP activity value, porcine sample” value [4] was 87.
With `N[C@@H](CCC(=O)Nc1ccc([N+](=O)[O-])c(C(=O)O)c1)C(=O)O` [γ-L-glutamyl-3-carboxy-4-nitroanilide, reference compound] the Solubility ([1]; 5° C.) was at least 100000 µM, the “relative γ-GTP activity value, human serum” value (γ-GTP (human serum) [2]) was 103 and the “Average values (measured values of human sera)” value (from here on “Average values”) (γ-GTP (human sera)) was 106.72. The “solubility and stability after dissolution versus γ-glutamyl-p-nitroanilide (in words)” value [5] was “much superior”, the Km (γ-GTP (human serum) [6]) was 1190 µM and the “relative γ-GTP activity value, bovine sample” value [3] was 94. For the same compound, the “Difference between max. and min. activity values” (γ-GTP) was 33, the “difference in reactivity with γ-GTPs derived from various sources (in words)” value (γ-GTP; various sources of γ-GTP) was “vary more widely in reactivity with γ-GTPs derived from various sources” and the “relative γ-GTP activity value, porcine sample” value [4] was 127. The Km (γ-GTP (porcine kidney) [7]) was 1630 µM.
In the case of `N[C@@H](CCC(=O)Nc1ccc([N+](=O)[O-])c(CO)c1)C(=O)O` [γ-L-glutamyl-3-hydroxymethyl-4-nitroanilide], the Solubility ([1]; 5° C.) is reported as at least 100000 µM, the “relative γ-GTP activity value, human serum” value (γ-GTP (human serum) [2]) is reported as 148 and the Coefficient of correlation (γ-GTP (human sera); Example 7 vs Comparative Example 3, n=50 human sera) is reported as 0.9998. For the same compound, the Coefficient of correlation (γ-GTP (human sera); Example 7 vs Comparative Example 4, n=50 human sera) was 0.9998, the “within-run precision (in words)” value (γ-GTP (human sera); Table 5) was “good precision” and the “Average values” value (γ-GTP (human sera)) was 115.94. For the same compound, the Average (γ-GTP (human sera); sample 1, n=40) was 66.4 IU/l, the “Coefficient of variation (C.V.)” value (γ-GTP (human sera); sample 1, n=40) was 0.95 and the Maximum (γ-GTP (human sera); sample 1, n=40) was 68 IU/l. The Minimum (γ-GTP (human sera); sample 1, n=40) was 66 IU/l, the Average (γ-GTP (human sera); sample 2, n=40) was 137.0 IU/l and the “Coefficient of variation (C.V.)” value (γ-GTP (human sera); sample 2, n=40) was 0.83. For the same compound, the Maximum (γ-GTP (human sera); sample 2, n=40) was 139 IU/l, the Minimum (γ-GTP (human sera); sample 2, n=40) was 134 IU/l and the Km (γ-GTP (porcine kidney) [8]) was 670 µM. For the same compound, the “relative γ-GTP activity value, bovine sample” value [3] was 151, the Km (γ-GTP (bovine kidney)) was 670 µM and the “Difference between max. and min. activity values” (γ-GTP) was 12. The “relative γ-GTP activity value, porcine sample” value [4] was 139 and the “linearity of calibration curve, upper limit” value [9] was “about 6400 IU/l”.
For `N[C@@H](CCC(=O)Nc1ccc([N+](=O)[O-])c(S(=O)(=O)O)c1)C(=O)O` [γ-L-glutamyl-3-sulfo-4-nitroanilide], the “solubility and stability after dissolution versus γ-glutamyl-p-nitroanilide (in words)” value [5] is given as “much superior”.
In the case of `N[C@@H](CCC(=O)Nc1ccc([N+](=O)[O-])cc1)C(=O)O` [γ-L-glutamyl-p-nitroanilide, reference compound], the Solubility ([1]; 37° C.) is reported as 5000 µM (≈ 1.34 mg/mL), the “relative γ-GTP activity value, human serum” value (γ-GTP (human serum) [2]) is reported as 100 and the “Average values” value (γ-GTP (human sera)) is reported as 115.02. The “solubility (in words)” value [10] was “slightly soluble”, the “stability (in words)” value ([5]; suitable pH range for dissolution) was “unstable” and the Km (γ-GTP (human serum) [6]) was 1330 µM. The “relative γ-GTP activity value, bovine sample” value [3] was 100, the “relative γ-GTP activity value, porcine sample” value [4] was 100 and the Km (γ-GTP (porcine kidney) [7]) was 1870 µM.
